# Test results reported in patent US10550143B2, “C,O-spiro aryl glycoside compounds, preparation therefor and use thereof” (SHANGHAI INSTITUTE OF MATERIA MEDICA, CHINESE ACADEMY OF …, priority 2015, dated 2020).
# Key:
# Assay type in all cases: in vivo, mouse
# [1] = tested on: db/db mice; assay: Chronic administration, fasting blood glucose in db/db mice
# Experimental: Oral gavage administrated, daily dose volume was 10 mL/kg, administered once daily. Administration time was 9: 00-10:00 daily, and the administration period was 5 weeks.
# The random blood glucose of mice in the normal control group, model control group, test substance administration group and positive control group were determined on the 7th, 14th, 21st, 28th day (9: 00-10:00) every week after the first administration, and food was removed and after 6 hours of starvation, the fasting blood glucose in each group was measured. Free drinking during the hunger process. The rate of decrease of blood glucose was calculated according to the following formula: Average hypoglycemic rate %=(Blood glucose of model control group−Blood glucose of administration group)/Model control group×100%
# [2] = tested on: db/db mice; assay: Acute administration at multiple doses, random blood glucose in db/db mice; conditions: for Blood glucose level 0 h: before administration
# Experimental: (1) 127 db/db mice (half male and half female) entered the animal laboratory of the institute at 7 weeks of age and were grouped at 10 weeks of age. Random blood glucose and random body weight of all db/db mice were determined at 9:00 am, and then fasted for 6 hours (free drinking). Fasting blood glucose and fasting body weight were determined, and blood was collected (10 μl EDTA+20 μl tail blood, centrifugated to collect supernatant) to determine the insulin content. […] The db/db mice were once orally administered at a dose of 10 mL/kg. Blood glucose levels were measured before administration, and at 1 h, 2 h, 3 h, 4 h, 6 h after administration, and the administration times and body weights were recorded. Mice took food and water freely during the experiment.
# Average hypoglycemic rate %=(model control group−administration group)/(model control group−blank control group)*100%
# [3] = tested on: C57BL/6J mice; assay: Acute administration of A28 at multiple doses, oral glucose tolerance of C57BL/6J mice; conditions: for AUC0-2 h / Average hypoglycemic rate % (0-2 h) / Blood glucose level 15 min / Blood glucose level 30 min / Blood glucose level 60 min / Blood glucose level 90 min / Blood glucose level 120 min / Blood glucose level 0: C57BL/6J mice OGTT; for Blood glucose level 0: before sugar
# Experimental: (1) Experimental Methods: 56 C57BL/6J mice were selected and starved for 6 h, took water freely, then randomly divided into 7 groups according to body weight and random blood glucose, 8 rats in each group. […] Average hypoglycemic rate %=(AUC0-120 min of solvent control group−AUC0-120 min of administration group)/(AUC0-120 min of solvent control group−AUC0-120 min of blank control group)*100%
# [4] = fasting blood glucose, 10 mg/kg once daily oral
smiles,measurement,setting,value
"CCc1ccc(Cc2cc3c(cc2Cl)CO[C@]32O[C@H](C)[C@@H](O)[C@H](O)[C@H]2O)s1 [Example A28, (1S,3′R,4′S,5′S,6′R)-6′-methyl-6-((5-ethylthienyl)-2-methyl)-5-chloro-3′,4′,5′,6′-tetrahydro-3H-spiro[isobenzofuran-1,2′-pyran]-3′,4′,5′-triol]",Hypoglycemic rate % week 4,"[1]; fasting blood glucose, 3 mg/kg once daily oral",46.8%
same,Hypoglycemic rate % week 1,[1]; [4],43.2%
same,Hypoglycemic rate % week 2,[1]; [4],68.9%
same,Hypoglycemic rate % week 3,[1]; [4],59.5%
same,Hypoglycemic rate % week 4,[1]; [4],54.5%
same,"effective dose, fasting blood glucose, random blood glucose and HbA1c reduction",[1]; four weeks chronic administration,0.3 mg/kg
same,"effective dose, reduction of blood glucose levels","[2]; single administration, within 6 h",3 mg/kg
same,AUC0-6 h,[2]; single oral 0.3 mg/kg,103.7 ± 7.7 mmol·h/L
same,Blood glucose level 1 h,[2]; single oral 0.3 mg/kg,19.4 ± 1.2 mmol/L
same,Blood glucose level 2 h,[2]; single oral 0.3 mg/kg,18.0 ± 0.9 mmol/L
same,Blood glucose level 3 h,[2]; single oral 0.3 mg/kg,17.2 ± 1.5 mmol/L
same,Blood glucose level 4 h,[2]; single oral 0.3 mg/kg,16.5 ± 1.5 mmol/L
same,Blood glucose level 6 h,[2]; single oral 0.3 mg/kg,15.4 ± 1.7 mmol/L
same,Blood glucose level 0 h,[2]; single oral 0.3 mg/kg,17.9 ± 1.5 mmol/L
same,AUC0-6 h,[2]; single oral 1 mg/kg,87.3 ± 4.8 mmol·h/L
same,Blood glucose level 1 h,[2]; single oral 1 mg/kg,15.9 ± 0.7 mmol/L
same,Blood glucose level 2 h,[2]; single oral 1 mg/kg,13.7 ± 0.6 mmol/L
same,Blood glucose level 3 h,[2]; single oral 1 mg/kg,14.6 ± 0.9 mmol/L
same,Blood glucose level 4 h,[2]; single oral 1 mg/kg,14.9 ± 1.1 mmol/L
same,Blood glucose level 6 h,[2]; single oral 1 mg/kg,12.3 ± 0.9 mmol/L
same,Blood glucose level 0 h,[2]; single oral 1 mg/kg,16.8 ± 1.2 mmol/L
same,AUC0-6 h,[2]; single oral 3 mg/kg,62.7 ± 3.3 mmol·h/L
same,Blood glucose level 1 h,[2]; single oral 3 mg/kg,11.2 ± 1.2 mmol/L
same,Blood glucose level 2 h,[2]; single oral 3 mg/kg,9.1 ± 0.5 mmol/L
same,Blood glucose level 3 h,[2]; single oral 3 mg/kg,10.2 ± 0.7 mmol/L
same,Blood glucose level 4 h,[2]; single oral 3 mg/kg,8.7 ± 0.6 mmol/L
same,Blood glucose level 6 h,[2]; single oral 3 mg/kg,9.7 ± 0.8 mmol/L
same,Blood glucose level 0 h,[2]; single oral 3 mg/kg,18.7 ± 1.2 mmol/L
same,AUC0-6 h,[2]; single oral 10 mg/kg,47.2 ± 1.7 mmol·h/L
same,Blood glucose level 1 h,[2]; single oral 10 mg/kg,8.2 ± 0.4 mmol/L
same,Blood glucose level 2 h,[2]; single oral 10 mg/kg,6.0 ± 0.6 mmol/L
same,Blood glucose level 3 h,[2]; single oral 10 mg/kg,7.1 ± 0.5 mmol/L
same,Blood glucose level 4 h,[2]; single oral 10 mg/kg,7.2 ± 0.6 mmol/L
same,Blood glucose level 6 h,[2]; single oral 10 mg/kg,6.1 ± 0.4 mmol/L
same,Blood glucose level 0 h,[2]; single oral 10 mg/kg,18.3 ± 1.7 mmol/L
same,AUC0-2 h,[3]; oral 0.3 mg/kg,21.6 ± 1.5 mmol·h/L
same,Average hypoglycemic rate % (0-2 h),[3]; oral 0.3 mg/kg,2.0%
same,Blood glucose level 15 min,[3]; oral 0.3 mg/kg,14.2 ± 2.1 mmol/L
same,Blood glucose level 30 min,[3]; oral 0.3 mg/kg,13.0 ± 1.7 mmol/L
same,Blood glucose level 60 min,[3]; oral 0.3 mg/kg,11.2 ± 0.8 mmol/L
same,Blood glucose level 90 min,[3]; oral 0.3 mg/kg,9.1 ± 1.0 mmol/L
same,Blood glucose level 120 min,[3]; oral 0.3 mg/kg,8.3 ± 1.0 mmol/L
same,Blood glucose level 0,[3]; oral 0.3 mg/kg,7.5 ± 0.4 mmol/L
same,AUC0-2 h,[3]; oral 1 mg/kg,19.8 ± 1.0 mmol·h/L
same,Average hypoglycemic rate % (0-2 h),[3]; oral 1 mg/kg,10.0%
same,Blood glucose level 15 min,[3]; oral 1 mg/kg,12.5 ± 1.6 mmol/L
same,Blood glucose level 30 min,[3]; oral 1 mg/kg,12.0 ± 0.8 mmol/L
same,Blood glucose level 60 min,[3]; oral 1 mg/kg,9.9 ± 0.9 mmol/L
same,Blood glucose level 90 min,[3]; oral 1 mg/kg,8.7 ± 0.7 mmol/L
same,Blood glucose level 120 min,[3]; oral 1 mg/kg,7.9 ± 0.7 mmol/L
same,Blood glucose level 0,[3]; oral 1 mg/kg,7.1 ± 0.6 mmol/L
same,AUC0-2 h,[3]; oral 3 mg/kg,18.5 ± 0.6 mmol·h/L
same,Average hypoglycemic rate % (0-2 h),[3]; oral 3 mg/kg,16.2%
same,Blood glucose level 15 min,[3]; oral 3 mg/kg,10.4 ± 1.0 mmol/L
same,Blood glucose level 30 min,[3]; oral 3 mg/kg,11.3 ± 1.1 mmol/L
same,Blood glucose level 60 min,[3]; oral 3 mg/kg,9.5 ± 0.7 mmol/L
same,Blood glucose level 90 min,[3]; oral 3 mg/kg,8.4 ± 0.7 mmol/L
same,Blood glucose level 120 min,[3]; oral 3 mg/kg,7.4 ± 0.6 mmol/L
same,Blood glucose level 0,[3]; oral 3 mg/kg,6.4 ± 0.7 mmol/L
same,"effective dose, reduction of blood glucose AUC within 2 h after sugar","[3]; C57BL/6J mice, once administrated",1 mg/kg
